Measurements as given in EPA's CvTdb concentration-time database.

Tests used:
[1] = tested on: Rat; experiment: concentration in plasma after dosing
[2] = tested on: Rat; experiment: concentration in brain after dosing; details: dosed: Perfluorohexane-1-sulphonic acid – potassium salt, 16 mg/kg, oral, Female

O=C(c1ccccc1)c1ccc(O)cc1O [2,4-Dihydroxybenzophenone]
concentration in plasma [ng/mL], [1], dosed: 2-Hydroxy-4-methoxybenzophenone, oral, F344
Details | 0.25 h | 0.5 h | 2.5 min | 3 h | 4 h | 5 h | 6 h | 10 h | 10 min | 12 h
100 mg/kg, Female | 174 | 145 | 64.3 | 82.3 | 54.2 | 60.3 | – | – | 200 | –
100 mg/kg, Male | 52.2 | 114 | – | 38.2 | 65.6 | 55.8 | – | – | 31 | –
250 mg/kg, Female | 410 | 658 | – | 166 | 157 | – | – | 89.8 | 57.2 | –
250 mg/kg, Male | 109 | 218 | – | 114 | 92.3 | – | – | 91.7 | 39.4 | –
500 mg/kg, Female | 287 | 688 | – | – | 296 | – | – | 242 | 178 | 185
500 mg/kg, Male | 180 | 192 | – | – | 233 | – | 171 | – | 2430 | 246

C=CCc1ccc(OC)c(OC)c1 [Methyleugenol]
concentration in plasma [ng/mL], [1], dosed: Methyleugenol, 37 mg/kg
Details | Female | Male
0.25 h, iv, F344 | 7960 | 7180
0.5 h, iv, F344 | 2470 | 2440
0.5 h, oral, F344/N | 27.3 | 282
0.75 h, iv, F344 | 1100 | 3230
1 h, oral, F344/N | – | 243
1.5 h, iv, F344 | 684 | 610
1.5 h, oral, F344/N | – | 39.6
2 h, oral, F344/N | – | 17.4
2 min, iv, F344 | 57800 | 32200
2 min, oral, F344/N | 29.2 | 35.1
3 h, iv, F344 | 215 | 232
3 h, oral, F344/N | – | 12.4
4 h, oral, F344/N | – | 17.8
5 h, oral, F344/N | – | 15.6
5 min, iv, F344 | 27400 | 26700
5 min, oral, F344/N | 108 | 81.2
6 h, iv, F344 | – | 175
8 h, oral, F344/N | 17.8 | 6.71
10 min, oral, F344/N | 345 | 369
20 min, oral, F344/N | 267 | 233

O=S(=O)([O-])C(F)(F)C(F)(F)C(F)(F)C(F)(F)C(F)(F)C(F)(F)F.[K+] [Perfluorohexane-1-sulphonic acid – potassium salt]
concentration in brain [ng/g], [2]
Details | 3 h | 6 h | 12 h | 24 h | 48 h | 192 h | 528 h
F344 | 1890 | 1490 | 2110 | 1460 | – | 847 | 523
Harlan Sprague Dawley | 1170 | 1070 | 951 | 731 | 515 | – | –

concentration in plasma [ng/mL], [1], dosed: Perfluorohexane-1-sulphonic acid – potassium salt, oral, Male, F344
Details | 0.25 h | 1 h | 3 h | 6 h | 12 h | 24 h | 192 h | 528 h | 864 h | 1200 h
4 mg/kg | 9900 | 23300 | 23900 | 31000 | 30800 | 27400 | 16200 | 11300 | 2510 | 7070
16 mg/kg | – | 73500 | – | – | – | – | – | – | – | –

CCC1(c2ccccc2)C(=O)NCNC1=O [Primidone]
concentration in plasma [ng/mL], [1], dosed: Primidone, oral
Details | 0.25 h | 0.5 h | 1.5 h | 3 h | 6 h | 9 h | 12 h | 18 h | 22 h
30 mg/kg, Female, F344 | 18100 | – | 23900 | 24900 | 11900 | 5700 | 2200 | 500 | –
30 mg/kg, Male, F344 | 8900 | – | 10000 | 6700 | 500 | – | – | – | –
80 mg/kg, Female, F344 | 16900 | 40000 | 48800 | 75900 | 36400 | 23400 | 12600 | 3600 | 400
80 mg/kg, Female, Harlan Sprague-Dawley | 9900 | 27200 | – | – | – | – | 1500 | – | –
80 mg/kg, Male, F344 | – | – | 34700 | 37100 | 14000 | 4000 | – | – | –
130 mg/kg, Female, F344 | – | 19600 | 78900 | 53300 | 24600 | 53800 | 5500 | – | 100
130 mg/kg, Female, Harlan Sprague-Dawley | – | – | 51900 | – | – | – | – | – | –
130 mg/kg, Male, F344 | – | – | 51500 | – | 22800 | 9000 | – | – | –
130 mg/kg, Male, Harlan Sprague Dawley | – | 55100 | – | 100000 | – | – | 22300 | – | –
